{
  "source": "ChEMBL document CHEMBL3045481",
  "about": "“Insecticide-induced resurgence of the whitebacked planthopper Sogatella furcifera (Horvath) (Hemiptera: Delphacidae) on rice varieties with different levels of resistance” (Crop Prot, 2011)",
  "assay_type_in_all_cases": "ADME, organism-based",
  "details_in_all_cases": "in vivo",
  "key": {"[1]": {"tested_on": "Oryza sativa", "assay": "Effect on total amino acids level in Sogatella furcifera-sensitive Oryza sativa (rice) plant ARC6248 leaf blade measured per gram of dry weight at 0.0018% concentration (reference value: 3.54 mg/g fresh wt)"}, "[2]": {"tested_on": "Oryza sativa", "assay": "Effect on total sugar level in Sogatella furcifera-sensitive Oryza sativa (rice) plant ARC6248 leaf blade measured per gram of dry weight at 0.0018% concentration (reference value: 34.05 mg/g dry wt)"}, "[3]": {"tested_on": "Oryza sativa", "assay": "Effect on total phenols level in Sogatella furcifera-resistanct Oryza sativa (rice) plant PR116 leaf blade measured per gram of dry weight at 0.0018% concentration (reference value: 8.08 mg/g dry wt)"}, "[4]": {"tested_on": "Oryza sativa", "assay": "Effect on total amino acids level in Sogatella furcifera-resistanct Oryza sativa (rice) plant PR116 leaf blade measured per gram of dry weight at 0.0035% concentration (reference value: 3.91 mg/g […])"}, "[5]": {"tested_on": "Oryza sativa", "assay": "Effect on total phenols level in Sogatella furcifera-sensitive Oryza sativa (rice) plant ARC6248 leaf blade measured per gram of dry weight at 0.0035% concentration (reference value: 17.08 mg/g dry wt)"}, "[6]": {"tested_on": "Oryza sativa", "assay": "Effect on reducing sugar level in Sogatella furcifera-sensitive Oryza sativa (rice) plant ARC6248 leaf sheath measured per gram of dry weight at 0.0035% concentration (reference value: 6.41 mg/g dry wt)"}, "[7]": {"tested_on": "Oryza sativa", "assay": "Effect on total sugar level in Sogatella furcifera-resistanct Oryza sativa (rice) plant PR116 leaf sheath measured per gram of dry weight at 0.0035% concentration (reference value: 30.27 mg/g dry wt)"}, "[8]": {"tested_on": "Oryza sativa", "assay": "Effect on total amino acids level in Sogatella furcifera-sensitive Oryza sativa (rice) plant ARC6248 leaf sheath measured per gram of dry weight at 0.0018% concentration (reference value: 2.11 mg/g fresh wt)"}, "[9]": {"tested_on": "Oryza sativa", "assay": "Effect on total protein level in Sogatella furcifera-sensitive Oryza sativa (rice) plant ARC6248 leaf sheath measured per gram of dry weight at 0.0035% concentration (reference value: 6.11 mg/g […])"}, "[10]": {"tested_on": "Oryza sativa", "assay": "Effect on total protein level in Sogatella furcifera-resistanct Oryza sativa (rice) plant PR116 leaf sheath measured per gram of dry weight at 0.0018% concentration (reference value: 7.06 mg/g fresh wt)"}, "[11]": {"tested_on": "Oryza sativa", "assay": "Effect on total sugar level in Sogatella furcifera-sensitive Oryza sativa (rice) plant ARC6248 leaf sheath measured per gram of dry weight at 0.0035% concentration (reference value: 25.98 mg/g dry wt)"}, "[12]": {"tested_on": "Oryza sativa", "assay": "Effect on total phenols level in Sogatella furcifera-resistanct Oryza sativa (rice) plant PR116 leaf sheath measured per gram of dry weight at 0.0018% concentration (reference value: 5.75 mg/g dry wt)"}, "[13]": {"tested_on": "Oryza sativa", "assay": "Effect on reducing sugar level in Sogatella furcifera-sensitive Oryza sativa (rice) plant ARC6248 leaf blade measured per gram of dry weight at 0.0018% concentration (reference value: 8.37 mg/g dry wt)"}, "[14]": {"tested_on": "Oryza sativa", "assay": "Effect on total amino acids level in Sogatella furcifera-resistanct Oryza sativa (rice) plant PR116 leaf sheath measured per gram of dry weight at 0.0035% concentration (reference value: 2.58 mg/g […])"}, "[15]": {"tested_on": "Oryza sativa", "assay": "Effect on reducing sugar level in Sogatella furcifera-resistanct Oryza sativa (rice) plant PR116 leaf sheath measured per gram of dry weight at 0.0035% concentration (reference value: 7.50 mg/g dry wt)"}, "[16]": {"tested_on": "Oryza sativa", "assay": "Effect on total amino acids level in Sogatella furcifera-sensitive Oryza sativa (rice) plant ARC6248 leaf sheath measured per gram of dry weight at 0.0035% concentration (reference value: 2.11 mg/g fresh wt)"}, "[17]": {"tested_on": "Oryza sativa", "assay": "Effect on total amino acids level in Sogatella furcifera-resistanct Oryza sativa (rice) plant PR116 leaf blade measured per gram of dry weight at 0.0018% concentration (reference value: 3.91 mg/g […])"}, "[18]": {"tested_on": "Oryza sativa", "assay": "Effect on total phenols level in Sogatella furcifera-sensitive Oryza sativa (rice) plant ARC6248 leaf sheath measured per gram of dry weight at 0.0018% concentration (reference value: 12.75 mg/g dry wt)"}, "[19]": {"tested_on": "Oryza sativa", "assay": "Effect on total protein level in Sogatella furcifera-resistanct Oryza sativa (rice) plant PR116 leaf sheath measured per gram of dry weight at 0.0035% concentration (reference value: 7.06 mg/g fresh wt)"}, "[20]": {"tested_on": "Oryza sativa", "assay": "Effect on total phenols level in Sogatella furcifera-resistanct Oryza sativa (rice) plant PR116 leaf sheath measured per gram of dry weight at 0.0035% concentration (reference value: 5.75 mg/g dry wt)"}, "[21]": {"tested_on": "Oryza sativa", "assay": "Effect on total sugar level in Sogatella furcifera-sensitive Oryza sativa (rice) plant ARC6248 leaf blade measured per gram of dry weight at 0.0035% concentration (reference value: 34.05 mg/g dry wt)"}, "[22]": {"tested_on": "Oryza sativa", "assay": "Effect on reducing sugar level in Sogatella furcifera-sensitive Oryza sativa (rice) plant ARC6248 leaf sheath measured per gram of dry weight at 0.0018% concentration (reference value: 6.41 mg/g dry wt)"}, "[23]": {"tested_on": "Oryza sativa", "assay": "Effect on total phenols level in Sogatella furcifera-sensitive Oryza sativa (rice) plant ARC6248 leaf blade measured per gram of dry weight at 0.0018% concentration (reference value: 17.08 mg/g dry wt)"}, "[24]": {"tested_on": "Oryza sativa", "assay": "Effect on total amino acids level in Sogatella furcifera-sensitive Oryza sativa (rice) plant ARC6248 leaf blade measured per gram of dry weight at 0.0035% concentration (reference value: 3.54 mg/g fresh wt)"}, "[25]": {"tested_on": "Oryza sativa", "assay": "Effect on reducing sugar level in Sogatella furcifera-resistanct Oryza sativa (rice) plant PR116 leaf blade measured per gram of dry weight at 0.0018% concentration (reference value: 9.35 mg/g dry wt)"}, "[26]": {"tested_on": "Oryza sativa", "assay": "Effect on total phenols level in Sogatella furcifera-resistanct Oryza sativa (rice) plant PR116 leaf blade measured per gram of dry weight at 0.0035% concentration (reference value: 8.08 mg/g dry wt)"}, "[27]": {"tested_on": "Oryza sativa", "assay": "Effect on total protein level in Sogatella furcifera-sensitive Oryza sativa (rice) plant ARC6248 leaf blade measured per gram of dry weight at 0.0035% concentration (reference value: 17.67 mg/g fresh wt)"}, "[28]": {"tested_on": "Oryza sativa", "assay": "Effect on total sugar level in Sogatella furcifera-resistanct Oryza sativa (rice) plant PR116 leaf sheath measured per gram of dry weight at 0.0018% concentration (reference value: 30.27 mg/g dry wt)"}, "[29]": {"tested_on": "Oryza sativa", "assay": "Effect on total sugar level in Sogatella furcifera-sensitive Oryza sativa (rice) plant ARC6248 leaf sheath measured per gram of dry weight at 0.0018% concentration (reference value: 25.98 mg/g dry wt)"}, "[30]": {"tested_on": "Oryza sativa", "assay": "Effect on total protein level in Sogatella furcifera-sensitive Oryza sativa (rice) plant ARC6248 leaf blade measured per gram of dry weight at 0.0018% concentration (reference value: 17.67 mg/g fresh wt)"}, "[31]": {"tested_on": "Oryza sativa", "assay": "Effect on total amino acids level in Sogatella furcifera-resistanct Oryza sativa (rice) plant PR116 leaf sheath measured per gram of dry weight at 0.0018% concentration (reference value: 2.58 mg/g […])"}, "[32]": {"tested_on": "Oryza sativa", "assay": "Effect on reducing sugar level in Sogatella furcifera-resistanct Oryza sativa (rice) plant PR116 leaf blade measured per gram of dry weight at 0.0035% concentration (reference value: 9.35 mg/g dry wt)"}, "[33]": {"tested_on": "Oryza sativa", "assay": "Effect on reducing sugar level in Sogatella furcifera-resistanct Oryza sativa (rice) plant PR116 leaf sheath measured per gram of dry weight at 0.0018% concentration (reference value: 7.50 mg/g dry wt)"}, "[34]": {"tested_on": "Oryza sativa", "assay": "Effect on total protein level in Sogatella furcifera-resistanct Oryza sativa (rice) plant PR116 leaf blade measured per gram of dry weight at 0.0018% concentration (reference value: 21.67 mg/g fresh wt)"}, "[35]": {"tested_on": "Oryza sativa", "assay": "Effect on reducing sugar level in Sogatella furcifera-sensitive Oryza sativa (rice) plant ARC6248 leaf blade measured per gram of dry weight at 0.0035% concentration (reference value: 8.37 mg/g dry wt)"}, "[36]": {"tested_on": "Oryza sativa", "assay": "Effect on total phenols level in Sogatella furcifera-sensitive Oryza sativa (rice) plant ARC6248 leaf sheath measured per gram of dry weight at 0.0035% concentration (reference value: 12.75 mg/g dry wt)"}, "[37]": {"tested_on": "Oryza sativa", "assay": "Effect on total sugar level in Sogatella furcifera-resistanct Oryza sativa (rice) plant PR116 leaf blade measured per gram of dry weight at 0.0035% concentration (reference value: 36.16 mg/g dry wt)"}, "[38]": {"tested_on": "Oryza sativa", "assay": "Effect on total sugar level in Sogatella furcifera-resistanct Oryza sativa (rice) plant PR116 leaf blade measured per gram of dry weight at 0.0018% concentration (reference value: 36.16 mg/g dry wt)"}, "[39]": {"tested_on": "Oryza sativa", "assay": "Effect on total protein level in Sogatella furcifera-resistanct Oryza sativa (rice) plant PR116 leaf blade measured per gram of dry weight at 0.0035% concentration (reference value: 21.67 mg/g fresh wt)"}, "[40]": {"tested_on": "Oryza sativa", "assay": "Effect on total protein level in Sogatella furcifera-sensitive Oryza sativa (rice) plant ARC6248 leaf sheath measured per gram of dry weight at 0.0018% concentration (reference value: 6.11 mg/g […])"}},
  "data": [
    {"smiles": "O=[N+]([O-])NC1=NCCN1Cc1ccc(Cl)nc1", "note": "[IMIDACLOPRID]", "values": [
      {"measurement": "Activity", "setting": "[1]", "value": 3.21, "unit": "mg"},
      {"measurement": "Activity", "setting": "[2]", "value": 40.45, "unit": "mg"},
      {"measurement": "Activity", "setting": "[3]", "value": 8.08, "unit": "mg"},
      {"measurement": "Activity", "setting": "[4]", "value": 4.27, "unit": "mg"},
      {"measurement": "Activity", "setting": "[5]", "value": 18, "unit": "mg"},
      {"measurement": "Activity", "setting": "[6]", "value": 6.63, "unit": "mg"},
      {"measurement": "Activity", "setting": "[7]", "value": 32.41, "unit": "mg"},
      {"measurement": "Activity", "setting": "[8]", "value": 2.02, "unit": "mg"},
      {"measurement": "Activity", "setting": "[9]", "value": 5.56, "unit": "mg"},
      {"measurement": "Activity", "setting": "[10]", "value": 6.06, "unit": "mg"},
      {"measurement": "Activity", "setting": "[11]", "value": 30.27, "unit": "mg"},
      {"measurement": "Activity", "setting": "[12]", "value": 6.17, "unit": "mg"},
      {"measurement": "Activity", "setting": "[13]", "value": 9.67, "unit": "mg"},
      {"measurement": "Activity", "setting": "[14]", "value": 2.68, "unit": "mg"},
      {"measurement": "Activity", "setting": "[15]", "value": 8.81, "unit": "mg"},
      {"measurement": "Activity", "setting": "[16]", "value": 2.48, "unit": "mg"},
      {"measurement": "Activity", "setting": "[17]", "value": 3.73, "unit": "mg"},
      {"measurement": "Activity", "setting": "[18]", "value": 14.75, "unit": "mg"},
      {"measurement": "Activity", "setting": "[19]", "value": 6.67, "unit": "mg"},
      {"measurement": "Activity", "setting": "[20]", "value": 6.67, "unit": "mg"},
      {"measurement": "Activity", "setting": "[21]", "value": 37, "unit": "mg"},
      {"measurement": "Activity", "setting": "[22]", "value": 7.28, "unit": "mg"},
      {"measurement": "Activity", "setting": "[23]", "value": 17.67, "unit": "mg"},
      {"measurement": "Activity", "setting": "[24]", "value": 3.73, "unit": "mg"},
      {"measurement": "Activity", "setting": "[25]", "value": 12.72, "unit": "mg"},
      {"measurement": "Activity", "setting": "[26]", "value": 8, "unit": "mg"},
      {"measurement": "Activity", "setting": "[27]", "value": 17.78, "unit": "mg"},
      {"measurement": "Activity", "setting": "[28]", "value": 31.34, "unit": "mg"},
      {"measurement": "Activity", "setting": "[29]", "value": 34.55, "unit": "mg"},
      {"measurement": "Activity", "setting": "[30]", "value": 15.11, "unit": "mg"},
      {"measurement": "Activity", "setting": "[31]", "value": 2.4, "unit": "mg"},
      {"measurement": "Activity", "setting": "[32]", "value": 11.85, "unit": "mg"},
      {"measurement": "Activity", "setting": "[33]", "value": 8.8, "unit": "mg"},
      {"measurement": "Activity", "setting": "[34]", "value": 18.89, "unit": "mg"},
      {"measurement": "Activity", "setting": "[35]", "value": 8.8, "unit": "mg"},
      {"measurement": "Activity", "setting": "[36]", "value": 14.08, "unit": "mg"},
      {"measurement": "Activity", "setting": "[37]", "value": 39.91, "unit": "mg"},
      {"measurement": "Activity", "setting": "[38]", "value": 40.98, "unit": "mg"},
      {"measurement": "Activity", "setting": "[39]", "value": 21.11, "unit": "mg"},
      {"measurement": "Activity", "setting": "[40]", "value": 5.56, "unit": "mg"}
    ]}
  ]
}
